Measured values: patent publication US8552024B2, “Azacyclic compounds” (Hoffman-La Roche Inc., priority 2011, dated 2013)

Each molecule was assayed against T1, human HSL (Homo sapiens, UniProt Q05469) (assay: Human Hormone-Sensitive Lipase (HSL) enzyme inhibition assay (colorimetric, DMPT substrate)). Settings: human full length HSL-His6; substrate 2,3-dimercapto-1-propanol tributyrate; 37° C., 20 minutes; absorbance at 405 nm; read-out: HSL hum IC50.
T1 construct: overlapping PCR to generate a full length human HSL ORF with a 3′-His6 tag; made in house; host or cells: High 5 insect cells (baculovirus, pFast-BAC)
T1 sequence (Q05469 1-1076): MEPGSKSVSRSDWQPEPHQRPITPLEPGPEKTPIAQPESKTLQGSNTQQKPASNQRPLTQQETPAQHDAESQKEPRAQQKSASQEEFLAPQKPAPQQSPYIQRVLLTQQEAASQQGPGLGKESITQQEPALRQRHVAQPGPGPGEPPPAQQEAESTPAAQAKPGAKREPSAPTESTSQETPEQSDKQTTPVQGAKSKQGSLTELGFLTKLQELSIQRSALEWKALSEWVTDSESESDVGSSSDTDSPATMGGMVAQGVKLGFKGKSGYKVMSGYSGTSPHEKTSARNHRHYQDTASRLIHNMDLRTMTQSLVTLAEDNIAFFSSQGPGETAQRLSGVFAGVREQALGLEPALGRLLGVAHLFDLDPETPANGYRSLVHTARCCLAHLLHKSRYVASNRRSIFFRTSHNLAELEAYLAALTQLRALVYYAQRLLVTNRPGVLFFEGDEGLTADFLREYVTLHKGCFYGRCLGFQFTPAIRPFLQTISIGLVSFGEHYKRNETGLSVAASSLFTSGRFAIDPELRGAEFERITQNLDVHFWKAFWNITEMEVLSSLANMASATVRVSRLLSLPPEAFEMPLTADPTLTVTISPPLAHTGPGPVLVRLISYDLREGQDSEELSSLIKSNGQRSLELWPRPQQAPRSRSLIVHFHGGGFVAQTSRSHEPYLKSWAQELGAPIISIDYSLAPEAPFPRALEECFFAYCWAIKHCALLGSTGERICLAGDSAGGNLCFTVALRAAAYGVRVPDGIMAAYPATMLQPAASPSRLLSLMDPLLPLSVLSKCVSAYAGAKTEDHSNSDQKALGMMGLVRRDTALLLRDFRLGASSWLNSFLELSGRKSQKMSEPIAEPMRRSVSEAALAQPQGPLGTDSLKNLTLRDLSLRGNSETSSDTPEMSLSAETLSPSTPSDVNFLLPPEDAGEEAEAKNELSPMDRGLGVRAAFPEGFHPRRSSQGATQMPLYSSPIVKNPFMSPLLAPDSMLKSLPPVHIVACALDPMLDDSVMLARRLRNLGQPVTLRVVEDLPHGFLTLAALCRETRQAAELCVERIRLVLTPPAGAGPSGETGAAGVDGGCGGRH
Type: biochemical
Procedure: Production of Human full length Hormone Sensitive Lipase-His^6:
1) Cloning: cDNA was prepared from commercial human brain polyA+ RNA and used as a template in overlapping PCR to generate a full length human HSL ORF with a 3′-His6 tag. This full length insert was cloned into the pFast-BAC vector and the DNA-sequence of several single clones was verified. DNA from a correct full length clone with the 3′His6 tag was used to transform the E. coli strain DH10BAC. Resulting bacmid DNA was used to generate a titered baculovirus stock for protein generation. The sequence of the encoded HSL conforms to Swissprot entry Q05469, with the additional C-terminal His6-tag. 2) Protein purification: Culture: 5.5 L, High 5 cells expressing human full length HSL-His^6, 48 hr., containing 25 μM E-64. Cell count: 1.78×10^10 cells/ml, 90% viable. Cells were thawed. On ice, cells were suspended in Base Buffer containing 10% glycerol, 25 mM Tris-Cl, 300 mM NaCl, 10 mM imidazole, 10 mM 2-mercaptoethanol, 2 μg pepstatin/ml, 2 μg leupeptin/ml, 2 μg antipain/ml, pH 8.0 at 4° C. in a final volume of 475 ml with 3.75×10^7 cells/ml. […] was done at 3×30 sec., Lubrol PX was added to 0.2% final concentration followed by stirring for 15 min. at 4° C. and centrifugation at 25 k×g, 60 min., 4° C. Soluble proteins were mixed with 60 ml of pre-washed and equilibrated Ni-NTA Agarose (Qiagen 30210) followed by tumbling end-over-end, 45 min., 4° C., centrifugation 1000 rpm 5 min and letting resin settle 5 min. Supernatant was removed, the resin washed in the centrifuge vessel using 5 volumes of Base Buffer containing 0.2% Lubrol PX. Centrifugation was done again, then the supernatant discarded. The resin was poured onto a 0.8 μm membrane in a disposable filter unit (Nalge 450-0080), and washed with 5 volumes of Base Buffer containing 0.2% Lubrol PX. It was then washed with 30 volumes of Base Buffer containing 60 mM imidazole pH 7.5 at 4° C. The protein was eluated with 5 volumes of 25 mM Tris-Cl, 300 mM NaCl, 200 mM imidazole, 10 mM 2-mercaptoethanol, pH 7.5 at 4° C. by tumbling resin with buffer end-over-end, 30 min., 4° C. The resin was captured on a 0.2 μm membrane disposable filter unit (Millipore SCGP U02 RE) and the eluate collected in the reservoir. The eluate was concentrated using a 30 k MWCO centrifugal filter device (Sartorius Vivascience Vivacell 100, VC1022), to 20 ml. It was then dialyzed overnight at 4° C., two times against 2 L of 10% glycerol, 25 mM Tris-Cl, 300 mM NaCl, 0.2 mM EDTA, 0.2 mM DTT, pH 7.5 at 4° C. The protein was filtered using a 0.22 μm disposable filter unit (Millipore SCGP00525). The protein concentration was calculated from absorbance at 280 nm, using 280=0.67 cm-1 mg-1. Yield was 235 mg, total. The protein was stored at −80° C.
Human Hormone-Sensitive Lipase (HSL) Enzyme Inhibition Assay:
HSL enzyme activity was measured by a colorimetric assay using 2,3-dimercapto-1-propanol tributyrate (Aldrich, St. Louis, Mo.) as a substrate. Typically, 1.5 mM 2,3-dimercapto-1-propanol tributyrate (DMPT) in 100 mM MOPS, pH 7.2, 0.2 mg/ml fatty acid-free BSA was prepared by sonication at 4° C. to homogenous suspension. Test compounds (2 mM stock in DMSO) were diluted 3 fold in series in DMSO. Compound solutions were diluted 24 fold in 1.5 mM DMPT containing solution and 18 ul per well was added to 384-well microplates (Corning Costar). Twelve microliters per well of human HSL (15 ug/ml) was added and the reaction mixture was incubated at 37° C. for 20 minutes. Six microliters of 12 mM dithio-bis-(2-nitrobenzoic acid) (DTNB) in DMSO plus 1.2% SDS and 0.6% Triton X-100 were added and the mixture was incubated at room temperature for 15 minutes. Product production was monitored by reading absorbance at 405 nm on an Envision Reader (PerkinElmer Life and Analytical Sciences, Shelton, Conn.).

Row | Compound | IC50 [µM]
1 | O=C1N(c2ccc(OC(F)(F)F)cc2)CCC12CCN(c1ccc(C(F)(F)F)cc1F)CC2 [Example 1, 8-(2-Fluoro-4-trifluoromethyl-phenyl)-2-(4-trifluoromethoxy-phenyl)-2,8-diaza-spiro[4.5]decan-1-one] | 0.92
2 | O=C1N(c2ccc(OC(F)(F)F)cc2)CCC12CCN(c1cc(C(F)(F)F)ccc1F)CC2 [Example 2, 8-(2-Fluoro-5-trifluoromethyl-phenyl)-2-(4-trifluoromethoxy-phenyl)-2,8-diaza-spiro[4.5]decan-1-one] | 0.55
3 | O=C1N(c2ccc(OC(F)(F)F)cc2)CCC12CCN(c1ccccc1F)CC2 [Example 3, 8-(2-Fluoro-phenyl)-2-(4-trifluoromethoxy-phenyl)-2,8-diaza-spiro[4.5]decan-1-one] | 0.31
4 | O=C1N(c2ccc(OC(F)(F)F)cc2)CCC12CCN(c1cccc(OC(F)(F)F)c1)CC2 [Example 4, 8-(3-Trifluoromethoxy-phenyl)-2-(4-trifluoromethoxy-phenyl)-2,8-diaza-spiro[4.5]decan-1-one] | 0.63
5 | O=C1N(c2ccc(OC(F)(F)F)cc2)CCC12CCN(c1ccccc1Cl)CC2 [Example 5, 8-(2-Chloro-phenyl)-2-(4-trifluoromethoxy-phenyl)-2,8-diaza-spiro[4.5]decan-1-one] | 0.71
6 | O=C1N(c2ccc(OC(F)(F)F)cc2)CCC12CCN(c1c(F)cccc1F)CC2 [Example 6, 8-(2,6-Difluoro-phenyl)-2-(4-trifluoromethoxy-phenyl)-2,8-diaza-spiro[4.5]decan-1-one] | 0.96
7 | O=C1N(c2ccc(OC(F)(F)F)cc2)CCC12CCN(c1cccc(OCc3ccccc3)n1)CC2 [Example 16, 8-(6-Benzyloxy-pyridin-2-yl)-2-(4-trifluoromethoxy-phenyl)-2,8-diaza-spiro[4.5]decan-1-one] | 0.9
8 | O=C1N(c2ccc(OC(F)(F)F)cc2)CCC12CCN(c1cccc(O)n1)CC2 [Example 17, 8-(6-Hydroxy-pyridin-2-yl)-2-(4-trifluoromethoxy-phenyl)-2,8-diaza-spiro[4.5]decan-1-one] | 0.25

The next molecules have a lower IC50 than those just listed; values first:

Row | IC50 [µM] | Compound
9 | 0.11 | COc1ccccc1N1CCC2(CC1)CCN(c1ccc(OC(F)(F)F)cc1)C2=O [Example 7, 8-(2-Methoxy-phenyl)-2-(4-trifluoromethoxy-phenyl)-2,8-diaza-spiro[4.5]decan-1-one]
10 | 0.1 | COc1ccc(C)cc1N1CCC2(CC1)CCN(c1ccc(OC(F)(F)F)cc1)C2=O [Example 8, 8-(2-Methoxy-5-methyl-phenyl)-2-(4-trifluoromethoxy-phenyl)-2,8-diaza-spiro[4.5]decan-1-one]
11 | 0.11 | COc1ncccc1N1CCC2(CC1)CCN(c1ccc(OC(F)(F)F)cc1)C2=O [Example 9, 8-(2-Methoxy-pyridin-3-yl)-2-(4-trifluoromethoxy-phenyl)-2,8-diaza-spiro[4.5]decan-1-one]
12 | 0.24 | Cc1cnc(F)c(N2CCC3(CC2)CCN(c2ccc(OC(F)(F)F)cc2)C3=O)c1 [Example 10, 8-(2-fluoro-5-methylpyridin-3-yl)-2-(4-(trifluoromethoxy)phenyl)-2,8-diazaspiro[4.5]decan-1-one]
13 | 0.02 | Cn1cccc(N2CCC3(CC2)CCN(c2ccc(OC(F)(F)F)cc2)C3=O)c1=O [Example 11, 8-(1-methyl-2-oxo-1,2-dihydropyridin-3-yl)-2-(4-(trifluoromethoxy)phenyl)-2,8-diazaspiro[4.5]decan-1-one]
14 | 0.03 | CCCn1cccc(N2CCC3(CC2)CCN(c2ccc(OC(F)(F)F)cc2)C3=O)c1=O [Example 12, 8-(2-Oxo-1-propyl-1,2-dihydro-pyridin-3-yl)-2-(4-trifluoromethoxy-phenyl)-2,8-diaza-spiro[4.5]decan-1-one]
15 | 0.05 | O=C1N(c2ccc(OC(F)(F)F)cc2)CCC12CCN(c1ccccc1O)CC2 [Example 13, 8-(2-Hydroxy-phenyl)-2-(4-trifluoromethoxy-phenyl)-2,8-diaza-spiro[4.5]decan-1-one]
16 | 0.06 | Cc1ccc(O)c(N2CCC3(CC2)CCN(c2ccc(OC(F)(F)F)cc2)C3=O)c1 [Example 14, 8-(2-Hydroxy-5-methyl-phenyl)-2-(4-trifluoromethoxy-phenyl)-2,8-diaza-spiro[4.5]decan-1-one]
17 | 0.04 | O=C1N(c2ccc(OC(F)(F)F)cc2)CCC12CCN(c1cccnc1O)CC2 [Example 15, 8-(2-Hydroxy-pyridin-3-yl)-2-(4-trifluoromethoxy-phenyl)-2,8-diaza-spiro[4.5]decan-1-one]
18 | 0.02 | C[C@H](Oc1ccc(N2CCC3(CCN(c4cccn(C)c4=O)CC3)C2=O)cc1)C(F)(F)F [Example 18, 8-(1-Methyl-2-oxo-1,2-dihydro-pyridin-3-yl)-2-[4-((S)-2,2,2-trifluoro-1-methyl-ethoxy)-phenyl]-2,8-diaza-spiro[4.5]decan-1-one]
